The numbers were not newly measured in patent US20250161231A1, “LUTEIN FOR USE IN INHIBITING MAST CELL DEGRANULATION” (N.V. NUTRICIA, priority 2022, published 2025), which cites them from elsewhere.

This series concerns human mast cells. Conditions: literature, Int Arch Allergy Immunol 113, 335-336, 1997.

Turning to `CC1=C(/C=C/C(C)=C/C=C/C(C)=C/C=C/C=C(C)/C=C/C=C(C)/C=C/C2=C(C)CCCC2(C)C)C(C)(C)CCC1` [beta-carotene], the “inhibition of histamine release from human mast cells” value was “dose-dependent inhibition”.
